Experimental data: ChEMBL document CHEMBL1146704, “(2-amino-phenyl)-amides of omega-substituted alkanoic acids as new histone deacetylase inhibitors” (Bioorg Med Chem Lett, 2004)
The source made the active and inactive calls. No cut-off for these calls is given here.

How the values were obtained:
Histone deacetylase = test: Effect on induced hyperacetylation of histones in whole cells; assay type: functional, cell-based, Homo sapiens
Histone deacetylase 1 = Histone deacetylase 1 (Homo sapiens, UniProt Q13547)
Histone deacetylase 1, sequence (Q13547 whole entry): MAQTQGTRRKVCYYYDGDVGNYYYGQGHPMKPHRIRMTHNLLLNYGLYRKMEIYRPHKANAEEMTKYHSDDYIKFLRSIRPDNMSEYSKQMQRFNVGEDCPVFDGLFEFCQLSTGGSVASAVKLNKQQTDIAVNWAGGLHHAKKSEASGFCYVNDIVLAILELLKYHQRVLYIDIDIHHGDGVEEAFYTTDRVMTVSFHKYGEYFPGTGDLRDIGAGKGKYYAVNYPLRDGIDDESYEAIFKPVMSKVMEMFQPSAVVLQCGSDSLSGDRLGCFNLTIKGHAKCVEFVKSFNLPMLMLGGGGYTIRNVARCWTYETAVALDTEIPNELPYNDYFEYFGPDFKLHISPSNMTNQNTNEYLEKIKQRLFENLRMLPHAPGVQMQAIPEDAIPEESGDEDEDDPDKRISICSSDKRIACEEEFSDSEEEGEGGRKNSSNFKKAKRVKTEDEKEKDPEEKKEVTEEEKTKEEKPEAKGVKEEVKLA
Description: Ability to inhibit recombinant human histone deacetylase 1 (HDAC-1).

HCT-116 = test: In vitro antiproliferative activity against human cancer cell line HCT116 using MTT assay; assay type: functional, cell-based
PANC-1 = test: […] inhibitory activity against human PANC-1 pancreatic tumor; Active; assay type: functional
SW48 = test: In vivo inhibitory activity against human SW48 colon tumor; Active
COLO 205 = test: In vivo inhibitory activity against human COLO 205 tumor; Active
A549 = test: In vivo inhibitory activity against human A549 non-small cell lung tumor; Active
DU-145 = test: In vivo inhibitory activity against human DU145 prostate tumor; Active; details: Prostate gland
[1] = Compound was tested for tumor growth inhibition relative to control; assay type: functional

SMILES	EC50 (Histone deacetylase) [µM]	IC50 (Histone deacetylase 1) [µM]	IC50 (HCT-116) [µM]	Activity (PANC-1)	Activity (SW48)	Activity (COLO 205)	Activity (A549)	Activity (DU-145)	TGI [1] [%]
COc1ccc(C(=O)CCCCCCC(=O)Nc2ccccc2N)cc1	5	5	21						
Nc1ccccc1NC(=O)CCCCCCC(=O)c1ccc(-c2ccccc2)nc1	5	3	5	Active	Active	Active	Active	Active	
Nc1ccccc1NC(=O)CCCCCn1c(=O)[nH]c2ccccc2c1=O	10	4	5						
Nc1ccccc1NC(=O)CCCCCCC(=O)c1cccc(-c2ccccc2)c1	25	1	12						
Nc1ccccc1NC(=O)CCCCCCC(=O)c1ccc2ccccc2c1	25	2	9						
Nc1ccccc1NC(=O)CCCCCCC(=O)c1ccc(-c2ccccc2)cc1	10	2	7	Active	Active	Active	Active	Active	53
Nc1ccccc1NC(=O)CCCCCCC(=O)c1ccc(-c2cccnc2)cc1	20	10	19						
Nc1ccccc1NC(=O)CCCCCCC(=O)c1ccc(Br)cc1	15	6	20						
Nc1ccccc1NC(=O)CCCCCN1C(=O)c2cccc3c(CN4CCOCC4)c(O)cc(c23)C1=O	2	0.5	1	Active	Active	Active	Active	Active	
Nc1ccccc1NC(=O)CCCCCN1C(=O)c2cc(O)c(CN3CCCCC3)cc2C1=O			31						
Cc1ccc2c(c1)C(=O)N(CCCCCC(=O)Nc1ccccc1N)C2=O	3		6						
Nc1ccccc1NC(=O)c1ccc(CNC(=O)OCc2cccnc2)cc1 [ENTINOSTAT]			0.5						
Nc1ccccc1NC(=O)CCCCCN1C(=O)c2cc(O)c(CN3CCOCC3)cc2C1=O		4	12						
Nc1ccccc1NC(=O)CCCCCN1C(=O)c2cccc3cc(O)cc(c23)C1=O			0.9	Active	Active	Active	Active	Active	28
Nc1ccccc1NC(=O)CCCCCn1nnc2ccccc2c1=O	10	8	10						
Cn1c(=O)n(CCCCCC(=O)Nc2ccccc2N)c(=O)c2ccccc21		4	5						
Nc1ccccc1NC(=O)CCCCCCC(=O)c1ccccc1	25	9	> 25						
Nc1ccccc1NC(=O)CCCCCN1C(=O)c2ccc(O)cc2C1=O	10		11						
Nc1ccccc1NC(=O)CCCCCN1C(=O)c2cccc3cccc(c23)C1=O	3	3	2	Active	Active	Active	Active	Active	
Nc1ccccc1NC(=O)CCCCCN1C(=O)c2cccc3c(Br)ccc(c23)C1=O	10		6						
Nc1ccccc1NC(=O)CCCCCN1Cc2ccccc2C1=O	99		15						
Nc1ccccc1NC(=O)CCCCCn1cnc2ccccc2c1=O			10						
Nc1ccccc1NC(=O)CCCCCN1C(=O)c2ccccc2C1=O	5	2	24						
Nc1ccccc1NC(=O)CCCCCN1C(=O)c2cccnc2C1=O	> 25		> 47						
COc1ccc(-c2ccc(C(=O)CCCCCCC(=O)Nc3ccccc3N)cc2)cc1OC	3	4	4						
Nc1ccccc1NC(=O)CCCCCN1C(=O)c2cccc3c(CN4CCCCC4)c(O)cc(c23)C1=O	1		1						
